Key:
Adenosine receptor A2a = Adenosine receptor A2a (Homo sapiens, UniProt P29274); experiment: DRUGMATRIX: Adenosine A2A radioligand binding (ligand: […]); assay type: cell membranes, Membrane; settings: hek293; Not Active = under 50% inhibition at 10 µM
[1] = DRUGMATRIX: Sodium/nucleoside co-transporter radioligand binding (ligand: nitrobenzylthioinosine); assay type: cell membranes, Cavia porcellus, Dunkin-Hartley, Cerebral cortex, Membrane; settings: Not Active = under 50% inhibition at 10 µM
[2] = DRUGMATRIX: beta-Lactamase enzyme inhibition (substrate: Nitrocefin); set-up: species or system Bacillus cereus; settings: Not Active = under 50% inhibition at 10 µM
[3] = DRUGMATRIX: Serotonin (5-Hydroxytryptamine) 5-HT3 radioligand binding (ligand: [3H] GR-65630); assay type: cell membranes, Membrane; settings: hek293; Not Active = under 50% inhibition at 10 µM
[4] = target: Matrix metalloproteinase-9 (Homo sapiens, UniProt P14780); experiment: biochemical; assay type: cell-based;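 further: inhibition of isolated MMP-9 enzyme activity toward a synthetic peptide substrate, from the DrugMatrix protease screening panel; in other assays of this panel Not Active means under 50% inhibition at 10 µM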
[5] = target: T1, 3-hydroxy-3-methylglutaryl-coenzyme A reductase (Homo sapiens, UniProt P04035); set-up: species or system Escherichia coli;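 further: enzyme inhibition assay of HMG-CoA reductase using radiolabeled [14C]HMG-CoA as substrate; in other assays of this panel Not Active means under 50% inhibition at 10 µM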
T1 sequence (P04035 whole entry): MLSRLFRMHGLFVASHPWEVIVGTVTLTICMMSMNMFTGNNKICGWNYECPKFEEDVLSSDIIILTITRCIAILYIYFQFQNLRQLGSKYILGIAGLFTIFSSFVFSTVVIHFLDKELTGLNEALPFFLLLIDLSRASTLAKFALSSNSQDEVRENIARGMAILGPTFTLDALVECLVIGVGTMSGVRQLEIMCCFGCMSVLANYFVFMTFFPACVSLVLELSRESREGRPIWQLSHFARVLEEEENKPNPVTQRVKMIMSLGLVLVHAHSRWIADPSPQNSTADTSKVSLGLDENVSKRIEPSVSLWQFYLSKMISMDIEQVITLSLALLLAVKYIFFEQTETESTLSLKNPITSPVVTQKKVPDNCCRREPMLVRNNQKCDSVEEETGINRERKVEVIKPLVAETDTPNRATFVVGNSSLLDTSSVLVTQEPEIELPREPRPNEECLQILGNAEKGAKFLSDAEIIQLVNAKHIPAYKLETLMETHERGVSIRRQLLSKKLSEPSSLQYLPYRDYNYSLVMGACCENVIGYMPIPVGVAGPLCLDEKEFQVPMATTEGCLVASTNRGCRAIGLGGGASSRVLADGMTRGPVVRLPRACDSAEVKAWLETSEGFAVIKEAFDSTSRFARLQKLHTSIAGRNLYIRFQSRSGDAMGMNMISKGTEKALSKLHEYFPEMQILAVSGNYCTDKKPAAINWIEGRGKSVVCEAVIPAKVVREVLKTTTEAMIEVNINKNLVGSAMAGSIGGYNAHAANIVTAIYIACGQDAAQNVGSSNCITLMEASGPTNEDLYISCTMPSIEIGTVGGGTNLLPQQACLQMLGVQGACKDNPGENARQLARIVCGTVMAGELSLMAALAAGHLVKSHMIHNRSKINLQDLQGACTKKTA

[6] = DRUGMATRIX: Nicotinic Acetylcholine radioligand binding (ligand: [125I] Epibatidine); assay type: cell membranes, Membrane; settings: imr-32; Not Active = under 50% inhibition at 10 µM
Endothelin-1 receptor = target: T2, Endothelin-1 receptor (Homo sapiens, UniProt P25101); assay type: cell membranes, CHO-K1, Membrane; settings: cho-k1; further: in other assays of this panel Not Active means under 50% inhibition at 10 µM
T2 sequence (P25101 whole entry): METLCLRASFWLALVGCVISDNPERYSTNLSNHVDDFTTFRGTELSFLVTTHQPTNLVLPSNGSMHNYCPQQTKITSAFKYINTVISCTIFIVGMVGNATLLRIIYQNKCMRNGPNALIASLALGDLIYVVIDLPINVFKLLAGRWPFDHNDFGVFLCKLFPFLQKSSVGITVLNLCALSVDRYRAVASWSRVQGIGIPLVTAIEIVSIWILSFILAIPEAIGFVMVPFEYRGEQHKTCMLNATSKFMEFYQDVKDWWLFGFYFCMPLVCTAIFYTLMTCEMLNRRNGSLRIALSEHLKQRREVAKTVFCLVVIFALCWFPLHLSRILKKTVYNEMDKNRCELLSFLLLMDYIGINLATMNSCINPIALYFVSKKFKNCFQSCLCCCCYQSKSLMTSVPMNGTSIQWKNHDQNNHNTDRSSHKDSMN

Chain of Adenosine receptor A2a (P29274 whole entry): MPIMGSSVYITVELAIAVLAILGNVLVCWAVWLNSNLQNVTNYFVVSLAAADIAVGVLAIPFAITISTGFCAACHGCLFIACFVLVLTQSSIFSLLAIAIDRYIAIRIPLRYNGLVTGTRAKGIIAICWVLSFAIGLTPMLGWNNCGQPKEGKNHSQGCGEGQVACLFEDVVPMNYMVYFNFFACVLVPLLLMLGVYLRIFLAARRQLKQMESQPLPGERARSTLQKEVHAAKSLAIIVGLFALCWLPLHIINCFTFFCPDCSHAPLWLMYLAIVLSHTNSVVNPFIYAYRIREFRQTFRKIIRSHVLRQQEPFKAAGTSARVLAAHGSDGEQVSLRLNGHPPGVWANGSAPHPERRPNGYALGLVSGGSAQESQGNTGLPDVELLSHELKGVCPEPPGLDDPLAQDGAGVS
Chain of Matrix metalloproteinase-9 (P14780 whole entry): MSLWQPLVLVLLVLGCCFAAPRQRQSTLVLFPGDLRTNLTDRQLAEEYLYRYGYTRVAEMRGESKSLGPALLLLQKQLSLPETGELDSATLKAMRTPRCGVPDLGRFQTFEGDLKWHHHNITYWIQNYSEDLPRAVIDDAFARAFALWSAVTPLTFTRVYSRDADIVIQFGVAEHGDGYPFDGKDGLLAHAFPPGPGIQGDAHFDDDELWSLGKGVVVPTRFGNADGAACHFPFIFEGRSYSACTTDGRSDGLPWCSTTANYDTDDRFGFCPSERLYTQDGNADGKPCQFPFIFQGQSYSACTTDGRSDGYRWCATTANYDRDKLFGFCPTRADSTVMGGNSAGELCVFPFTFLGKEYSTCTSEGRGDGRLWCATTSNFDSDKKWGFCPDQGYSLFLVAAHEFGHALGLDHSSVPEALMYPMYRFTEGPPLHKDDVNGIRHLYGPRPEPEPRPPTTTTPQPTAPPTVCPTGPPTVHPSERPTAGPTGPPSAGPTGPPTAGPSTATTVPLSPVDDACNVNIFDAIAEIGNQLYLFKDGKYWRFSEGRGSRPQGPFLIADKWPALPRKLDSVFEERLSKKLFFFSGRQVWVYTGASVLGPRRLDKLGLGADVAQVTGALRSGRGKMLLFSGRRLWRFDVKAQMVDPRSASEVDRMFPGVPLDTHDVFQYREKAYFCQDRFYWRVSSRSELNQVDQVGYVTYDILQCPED

CC1(C)S[C@@H]2[C@H](NC(=O)Cc3ccccc3)C(=O)N2[C@H]1C(=O)O [PENICILLIN G]
Not Active: IC50 (Adenosine receptor A2a) | IC50 [1] | Ki [1] | IC50 [2] | Ki [2] | IC50 [3] | Ki [3] | IC50 [4] | IC50 [5] | IC50 [6] | Ki [6] | IC50 (Endothelin-1 receptor)

C[C@H]1O[C@@H](O[C@H]2[C@@H](O)C[C@H](O[C@H]3[C@@H](O)C[C@H](O[C@H]4CC[C@@]5(C)[C@H](CC[C@@H]6[C@@H]5C[C@@H](O)[C@]5(C)[C@@H](C7=CC(=O)OC7)CC[C@]65O)C4)O[C@@H]3C)O[C@@H]2C)C[C@H](O)[C@@H]1O [DIGOXIN]
Not Active: IC50 (Adenosine receptor A2a) | IC50 [1] | Ki [1] | IC50 [2] | Ki [2] | IC50 [3] | Ki [3] | IC50 [4] | IC50 [5] | IC50 [6] | Ki [6] | IC50 (Endothelin-1 receptor)

c1ccc2c(c1)c1cccc3ccc4cccc2c4c31 [BENZO[E]PYRENE]
Not Active: IC50 (Adenosine receptor A2a) | IC50 [1] | Ki [1] | IC50 [2] | Ki [2] | IC50 [3] | Ki [3] | IC50 [4] | IC50 [5] | IC50 [6] | Ki [6] | IC50 (Endothelin-1 receptor)

Sc1ncnc2nc[nH]c12 [MERCAPTOPURINE ANHYDROUS]
Not Active: IC50 (Adenosine receptor A2a) | IC50 [1] | Ki [1] | IC50 [2] | Ki [2] | IC50 [3] | Ki [3] | IC50 [4] | IC50 [5] | IC50 [6] | Ki [6] | IC50 (Endothelin-1 receptor)

O=c1oc2ccccc2c(O)c1Cc1c(O)c2ccccc2oc1=O [DICUMAROL]
Not Active: IC50 (Adenosine receptor A2a) | IC50 [1] | Ki [1] | IC50 [2] | Ki [2] | IC50 [3] | Ki [3] | IC50 [4] | IC50 [5] | IC50 [6] | Ki [6] | IC50 (Endothelin-1 receptor)

Nc1nc(N)nc(-c2cc(Cl)ccc2Cl)n1.O=C(O)/C=C\C(=O)O [IRSOGLADINE MALEATE]
Not Active: IC50 (Adenosine receptor A2a) | IC50 [1] | Ki [1] | IC50 [2] | Ki [2] | IC50 [3] | Ki [3] | IC50 [4] | IC50 [5] | IC50 [6] | Ki [6] | IC50 (Endothelin-1 receptor)

CC1(C)O[C@@H]2C[C@H]3[C@@H]4CCC5=CC(=O)CC[C@]5(C)[C@@]4(F)[C@@H](O)C[C@]3(C)[C@]2(C(=O)CCl)O1 [HALCINONIDE]
Not Active: IC50 (Adenosine receptor A2a) | IC50 [1] | Ki [1] | IC50 [2] | Ki [2] | IC50 [3] | Ki [3] | IC50 [4] | IC50 [5] | IC50 [6] | Ki [6] | IC50 (Endothelin-1 receptor)

O=c1[nH]c(=O)n([C@H]2C[C@H](O)[C@@H](CO)O2)cc1I [IDOXURIDINE]
Not Active: IC50 (Adenosine receptor A2a) | IC50 [1] | Ki [1] | IC50 [2] | Ki [2] | IC50 [3] | Ki [3] | IC50 [4] | IC50 [5] | IC50 [6] | Ki [6] | IC50 (Endothelin-1 receptor)

CC(C)C(=O)Nc1ccc([N+](=O)[O-])c(C(F)(F)F)c1 [FLUTAMIDE]
Not Active: IC50 (Adenosine receptor A2a) | IC50 [1] | Ki [1] | IC50 [2] | Ki [2] | IC50 [3] | Ki [3] | IC50 [4] | IC50 [5] | IC50 [6] | Ki [6] | IC50 (Endothelin-1 receptor)

CCC1(c2ccc(N)cc2)CCC(=O)NC1=O (stereo unspecified) [AMINOGLUTETHIMIDE]
Not Active: IC50 (Adenosine receptor A2a) | IC50 [1] | Ki [1] | IC50 [2] | Ki [2] | IC50 [3] | Ki [3] | IC50 [4] | IC50 [5] | IC50 [6] | Ki [6] | IC50 (Endothelin-1 receptor)

Cc1ccc2cc3c(ccc4ccccc43)c3c2c1CC3 [3-METHYLCHOLANTHRENE]
Not Active: IC50 (Adenosine receptor A2a) | IC50 [1] | Ki [1] | IC50 [2] | Ki [2] | IC50 [3] | Ki [3] | IC50 [4] | IC50 [5] | IC50 [6] | Ki [6] | IC50 (Endothelin-1 receptor)

O=C(O)CCCc1ccc(N(CCCl)CCCl)cc1 [CHLORAMBUCIL]
Not Active: IC50 (Adenosine receptor A2a) | IC50 [1] | Ki [1] | IC50 [2] | Ki [2] | IC50 [3] | Ki [3] | IC50 [4] | IC50 [5] | IC50 [6] | Ki [6] | IC50 (Endothelin-1 receptor)

CC(NC(C)(C)C)C(=O)c1cccc(Cl)c1 (stereo unspecified) [BUPROPION]
Not Active: IC50 (Adenosine receptor A2a) | IC50 [1] | Ki [1] | IC50 [2] | Ki [2] | IC50 [3] | Ki [3] | IC50 [4] | IC50 [5] | IC50 [6] | Ki [6] | IC50 (Endothelin-1 receptor)
